Data on 3 molecules can be found in publication PMC11324770, “A novel in vitro high-content imaging assay for the prediction of drug-induced lung toxicity” (Archives of Toxicology, 2024).

One series concerns occludin in A549 cells. Briefly: High-content imaging of junctional occludin staining in A549 cells. Format: cell-based. The settings on record: for area of junctional staining present at the cell membrane compared to DMSO controls: A549, 24 h, concentration-dependent, Fig. 2 shows TNFα/TGFβ as a combination. The method, then: A549 (ATCC), an alveolar epithelial cell line, and CALU-3 (ATCC), an epithelial cell line, were cultured in Dulbecco’s modified Eagle’s medium (DMEM) supplemented with 10% foetal bovine serum (FBS). 16HBE bronchial epithelial cells, kindly provided by Carl Staples (University of Southampton), were cultured in DMEM supplemented with 10% FBS and 1% non-essential amino acids). All culture media materials were purchased from Thermo Fisher Scientific. For imaging experiments, cells were seeded at 10,000 cells per well in 96-well CellCarrier imaging plates (Perkin Elmer) and cultured for 72 h to allow tight junction formation. All experiments were carried out between passages 3 and 15.
All tested compounds were synthesized internally and provided in 100% DMSO. Compounds were diluted in appropriate media to a 9-point concentration range from 100 µM down to 15 nM with a final concentration of 1% DMSO. Cigarette smoke extract (CSE) was produced by passing smoke from 5 University of Kentucky research cigarettes with filters removed through PBS with an air pump at a rate 0.07 L/min. CSE was diluted in appropriate media to a concentration range of 12% to 0.01%. TNF-α and TGF-β (Thermo Fisher Scientific) were diluted in appropriate media to a concentration range of 50 ng/ml to 0.02 ng/ml. All treatments were for 24 h and terminated by removing media and fixing with 4% paraformaldehyde (PFA). Vehicle (1% DMSO) was included for each plate and all treatments were carried out in duplicate on each plate. All experiments were independently repeated at least 3 times.
Following treatment, cells were washed twice in PBS and fixed in 4% PFA for 20 min at room temperature and permeabilized using 0.5% Triton-X for 15 min at room temperature. Cells were then blocked using 5% goat serum in PBS at room temperature for 1 h. Primary antibodies were applied as per optimized conditions based on manufacturers recommended dilutions overnight at 4 °C. Cells were washed twice in PBS prior to application of secondary antibodies at a dilution of 1:5000 for 1 h at room temperature. Cells were washed twice with PBS and subsequently stained with a mixture of Hoechst and Cell Mask Deep Red at 1:1000 in PBS. Finally, cells were washed twice in PBS and either stored at 4 °C or imaged immediately. Plates were imaged using a MolecularDevices IXC. […] Cell viability was assessed through direct counts of nuclei.
Analysis modules were written using the custom module editor of MetaXpress version 6.5.4.532. […] This thickened outline mask was then applied to the cell mask image and the area of staining was quantified. […] To quantify the amount of occludin staining at the membrane, the final step of the module overlaid the thickened membrane mask with the thickened junction mask. […]

The subject of another series is respiratory tract. Set-up: method as in printed. Conditions: ref not given, cited from earlier work.

Broadly, the IC50 is the concentration needed to halve the response being measured. The low end stands for higher potency, the high end for lower potency.

In the case of TNF-α, the “area of junctional staining present at the cell membrane compared to DMSO controls” value (shortened to “area … compared to DMSO controls”) with occludin in A549 cells was “significant decrease”.

In the case of TGF-β, the “area … compared to DMSO controls” value in the series with occludin in A549 cells is reported as “significant decrease”.

In the case of `[Cl][Cd][Cl]` [Cadmium chloride], the “area … compared to DMSO controls” value in the series on occludin in A549 cells is “significant decrease”. The molecule also displayed a concentration for half-maximal inhibition (IC50) in the series with occludin in A549 cells (area of occludin staining normalized to cell number and DMSO, 24 h, 9-point range up to 100 µM, NA = no IC50 curve could be established) of 3.7 µM. Further, the “Comment (respiratory findings)” value with respiratory tract (earlier non-clinical or clinical findings) was “Pneumonitis and fibrosis”. In the series on respiratory tract (earlier pivotal toxicology studies in pre-clinical species or clinic), the Respiratory safety risk entry is on record as “Yes”.
